Assays:
[1] = standard pressure of about 760 mm Hg; cited from earlier work
[2] = Boiling point / liquid-gas phase transition temperature of core gases; type: physicochemical; conditions: interstitial pressure of 795 mm Hg; gas law approximation
Source text: Applicant's gaseous precursors include, for example, fluorinated carbons, perfluorocarbons, sulfur hexafluoride, perfluoro ethers and combinations thereof. As the stilled artisan will appreciate, a particular fluorinated compound, such as sulfur hexafluoride, a perfluorocarbon or a perfluoro ether, may exist in the liquid state when the compositions are first made, and are thus used as a gaseous precursor. Whether the fluorinated compound is a liquid generally depends on its liquid/gas phase transition temperature, or boiling point. For example, a preferred perfluorocarbon, perfluoropentane, has a liquid/gas phase transition temperature (boiling point) of 29.5° C. This means that perfluoropentane is generally a liquid at room temperature (about 25° C.), but is converted to a gas within the human body, the normal temperature of which is about 37° C., which is above the transition temperature of perfluoropentane. Thus, under normal circumstances, perfluoropentane is a gaseous precursor. As known to one skilled in the art, the effective boiling point of a substance may be related to the pressure to which that substance is exposed. This relationship is exemplified by the ideal gas law: PV=nRT, where P is pressure, V is volume, n is moles of substance, R is the gas constant, and T is temperature. […] Conversely, as pressure decreases, the effective boiling point decreases. […]

- boiling point at interstitial pressure [2]: about 30.5 °C
Structure (SMILES): FC(F)(F)C(F)(F)C(F)(F)C(F)(F)C(F)(F)F [Perfluoropentane]
- liquid/gas phase transition temperature (boiling point) [1]: 29.5 °C

Source: US10279053B2, “Microbubble compositions, method of making same, and method using same” (NuvOx Pharma LLC, priority 2011, dated 2019)
